Each structure is given as a SMILES string.

The target in the assay is T1, F508del (Homo sapiens, UniProt P13569, DEL508-508).
T1 construct: expressed in transfected cells
T1 sequence (P13569 with tags, fused parts or gaps DEL508-508): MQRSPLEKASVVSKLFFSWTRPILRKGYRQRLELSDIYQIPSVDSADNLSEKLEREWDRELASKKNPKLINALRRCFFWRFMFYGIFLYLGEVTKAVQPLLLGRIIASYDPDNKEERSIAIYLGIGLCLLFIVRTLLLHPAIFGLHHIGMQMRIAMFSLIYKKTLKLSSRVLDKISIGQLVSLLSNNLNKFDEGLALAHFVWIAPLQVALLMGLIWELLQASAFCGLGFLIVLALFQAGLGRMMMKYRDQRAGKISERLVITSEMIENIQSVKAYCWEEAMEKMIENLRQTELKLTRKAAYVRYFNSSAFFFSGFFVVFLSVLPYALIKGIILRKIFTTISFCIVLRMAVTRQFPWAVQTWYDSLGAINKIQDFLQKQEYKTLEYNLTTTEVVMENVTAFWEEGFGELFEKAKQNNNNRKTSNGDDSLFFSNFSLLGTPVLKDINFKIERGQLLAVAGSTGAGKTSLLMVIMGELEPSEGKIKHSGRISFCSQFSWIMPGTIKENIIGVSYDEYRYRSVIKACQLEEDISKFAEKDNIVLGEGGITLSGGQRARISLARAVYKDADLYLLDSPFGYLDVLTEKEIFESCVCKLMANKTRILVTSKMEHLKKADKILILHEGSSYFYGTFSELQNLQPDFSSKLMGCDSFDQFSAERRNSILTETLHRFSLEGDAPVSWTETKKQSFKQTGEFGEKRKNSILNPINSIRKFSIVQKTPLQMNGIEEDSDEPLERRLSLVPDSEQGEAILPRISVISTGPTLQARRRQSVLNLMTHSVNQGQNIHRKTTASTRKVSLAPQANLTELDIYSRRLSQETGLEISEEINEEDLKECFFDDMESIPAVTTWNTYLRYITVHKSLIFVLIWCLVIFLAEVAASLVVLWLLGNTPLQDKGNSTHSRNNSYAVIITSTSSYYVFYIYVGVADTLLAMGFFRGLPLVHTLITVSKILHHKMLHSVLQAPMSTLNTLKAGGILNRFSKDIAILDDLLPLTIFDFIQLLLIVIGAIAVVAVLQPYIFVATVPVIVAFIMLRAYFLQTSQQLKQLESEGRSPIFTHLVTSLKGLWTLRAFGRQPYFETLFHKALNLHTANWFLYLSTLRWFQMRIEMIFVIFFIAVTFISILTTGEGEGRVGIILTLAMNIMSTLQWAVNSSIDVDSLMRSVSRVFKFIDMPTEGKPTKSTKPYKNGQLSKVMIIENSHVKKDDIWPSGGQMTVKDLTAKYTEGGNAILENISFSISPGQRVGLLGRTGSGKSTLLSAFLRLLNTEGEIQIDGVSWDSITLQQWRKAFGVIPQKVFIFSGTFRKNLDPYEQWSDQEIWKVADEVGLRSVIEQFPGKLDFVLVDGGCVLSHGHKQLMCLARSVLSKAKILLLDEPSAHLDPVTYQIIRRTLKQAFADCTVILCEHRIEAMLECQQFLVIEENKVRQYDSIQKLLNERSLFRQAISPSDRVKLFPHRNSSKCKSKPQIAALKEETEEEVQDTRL
The assay is described as follows: Protocol 1: membrane potential optical assay (FLIPR III, voltage sensing dye), identification of potentiator compounds. It is filed as cell-based. As to conditions: Table 3, compounds of Table 1. In a few lines: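 Membrane potential in forskolin-activated, temperature-rescued F508del NIH 3T3 cells is followed with a voltage-sensing dye on FLIPR III. A chloride ion gradient created at the single addition step provides the driving force, after prior compound treatment.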
With `Cc1cc(C)c(Oc2nc(C3(C)CC3)ccc2C(=O)NS(=O)(=O)c2ccc[nH]c2=O)c(C)c1` [Compound 1226, 6-(1-methylcyclopropyl)-N-[(2-oxo-1H-pyridin-3-yl)sulfonyl]-2-(2,4,6-trimethylphenoxy)pyridine-3-carboxamide], the EC30 entry is “+++ (“+++” means <3 uM)”.

In the case of `[2H]C1([2H])[C@@H](C)CC(C)(C)N1c1nc(-c2cc(F)cc(OCC(C)C)c2)ccc1C(=O)NS(=O)(=O)c1cccc(N)n1` [Compound 1400, N-[(6-amino-2-pyridyl)sulfonyl]-2-[(3S)-2,2-dideuterio-3,5,5-trimethyl-pyrrolidin-1-yl]-6-(3-fluoro-5-isobutoxy-phenyl)pyridine-3-carboxamide], the EC30 entry is reported as “+++ (“+++” means <3 uM)”.

As to `C[C@@H]1CN(c2nc(-c3ccccc3Cl)ccc2C(=O)NS(=O)(=O)c2ccc[nH]c2=O)C(C)(C)C1` [Compound 1784, 6-(2-chlorophenyl)-N-[(2-oxo-1H-pyridin-3-yl)sulfonyl]-2-[(4S)-2,2,4-trimethylpyrrolidin-1-yl]pyridine-3-carboxamide], the EC30 entry is on record as “+++ (“+++” means <3 uM)”.

As for `Cc1cc(C)c(CN2CCc3ccccc3CC2C(=O)NS(=O)(=O)c2ccccn2)c(C)c1` (stereo not drawn) [Compound 1093, N-(2-pyridylsulfonyl)-3-[(2,4,6-trimethylphenyl)methyl]-1,2,4,5-tetrahydro-3-benzazepine-4-carboxamide], the EC30 result is “++ (“++” means between 3 uM and 10 uM)”.

With `Cc1cc(C)c(Oc2nc(-c3cnn(CC(C)C)c3)ccc2C(=O)NS(=O)(=O)c2nccnc2N)c(C)c1` [Compound 1103, N-(3-aminopyrazin-2-yl)sulfonyl-6-(1-isobutylpyrazol-4-yl)-2-(2,4,6-trimethylphenoxy)pyridine-3-carboxamide], the EC30 entry is “+++ (“+++” means <3 uM)”.

Regarding `CC1CN(c2nc(-c3ccc(OC(C)C)cc3)ccc2C(=O)NS(=O)(=O)c2cccc(N)n2)C(C)(C)C1` (stereo not drawn) [Compound 1020, N-[(6-amino-2-pyridyl)sulfonyl]-6-(4-isopropoxyphenyl)-2-(2,2,4-trimethylpyrrolidin-1-yl)pyridine-3-carboxamide], the EC30 result is given as “+++ (“+++” means <3 uM)”.

`CC(C)COc1cc(F)cc(-c2ccc(C(=O)NS(=O)(=O)c3cccc(N)n3)c(OCC3(C)COC3)n2)c1` [Compound 824, N-[(6-amino-2-pyridyl)sulfonyl]-6-(3-fluoro-5-isobutoxy-phenyl)-2-[(3-methyloxetan-3-yl)methoxy]pyridine-3-carboxamide]: the EC30 result was “++ (“++” means between 3 uM and 10 uM)”.

For the compound `CC(C)Oc1ccn(-c2ccc(C(=O)NS(=O)(=O)c3cccc(N)n3)c(N3C[C@@H](C)CC3(C)C)n2)n1` [Compound 1709, N-[(6-amino-2-pyridyl)sulfonyl]-6-(3-isopropoxypyrazol-1-yl)-2-[(4S)-2,2,4-trimethylpyrrolidin-1-yl]pyridine-3-carboxamide], the EC30 result is “+++ (“+++” means <3 uM)”.

Regarding `CC(C)Oc1ccc(-c2cnc(C(=O)NS(=O)(=O)c3cccc(N)n3)c(N3[C@H](C)CC[C@@H]3C)n2)cn1` [Compound 1651, N-[(6-amino-2-pyridyl)sulfonyl]-3-[(2S,5R)-2,5-dimethylpyrrolidin-1-yl]-5-(6-isopropoxy-3-pyridyl)pyrazine-2-carboxamide], the EC30 entry was “++ (“++” means between 3 uM and 10 uM)”.

In the case of `CC(C)Oc1ccc(-c2ccc(C(=O)NS(=O)(=O)c3cccc(N)n3)c(N3C(C)CCC3(C)C)n2)cn1` (stereo not drawn) [Compound 1040, N-[(6-amino-2-pyridyl)sulfonyl]-6-(6-isopropoxy-3-pyridyl)-2-(2,2,5-trimethylpyrrolidin-1-yl)pyridine-3-carboxamide], the EC30 result is listed as “+++ (“+++” means <3 uM)”.

For the compound `CC(C)COc1cc(F)cc(-c2ccc(C(=O)NS(=O)(=O)N3CCCC(N(C)C)C3)c(N3CC(C)CC3(C)C)n2)c1` (stereo not drawn) [Compound 1414, N—[[3-(dimethylamino)-1-piperidyl]sulfonyl]-6-(3-fluoro-5-isobutoxy-phenyl)-2-(2,2,4-trimethylpyrrolidin-1-yl)pyridine-3-carboxamide], the EC30 result is listed as “+++ (“+++” means <3 uM)”.

As to `Cc1cc(C)c(CN2Cc3c(O)cccc3C2(C)C(=O)NS(=O)(=O)c2cccc(N)n2)c(C)c1` (stereo not drawn) [Compound 1338, N-[(6-amino-2-pyridyl)sulfonyl]-4-hydroxy-1-methyl-2-[(2,4,6-trimethylphenyl)methyl]isoindoline-1-carboxamide], the EC30 result was “++ (“++” means between 3 uM and 10 uM)”.

For `CC(C)COc1cc(F)cc(-c2ccc(C(=O)NS(=O)(=O)c3cccc(N)n3)c(N(C)CC3CC3)n2)c1` [Compound 1010, N-[(6-amino-2-pyridyl)sulfonyl]-2-[cyclopropylmethyl(methyl)amino]-6-(3-fluoro-5-isobutoxy-phenyl)pyridine-3-carboxamide], the EC30 entry is given as “+++ (“+++” means <3 uM)”.

Regarding `Cc1ccc(-c2nc(C(C)(C)C)ccc2C(=O)NS(=O)(=O)c2cccc(N)c2)c(F)c1` [Compound 1331, N-(3-aminophenyl)sulfonyl-6-tert-butyl-2-(2-fluoro-4-methyl-phenyl)pyridine-3-carboxamide], the EC30 entry is given as “+ (“+” means greater than 10 uM)”.

With `C[C@@H]1CN(c2nc(C3CCOCC3)ccc2C(=O)NS(=O)(=O)c2cccc(N)n2)C(C)(C)C1` [Compound 1595, N-[(6-amino-2-pyridyl)sulfonyl]-6-tetrahydropyran-4-yl-2-[(4S)-2,2,4-trimethylpyrrolidin-1-yl]pyridine-3-carboxamide], the EC30 result is “+++ (“+++” means <3 uM)”.

For `CCOCCOCCOc1cc(-c2ccc(C(=O)NS(=O)(=O)c3cccc(N)n3)c(N3C[C@@H](C)CC3(C)C)n2)cc(C)n1` [Compound 1812, N-[(6-amino-2-pyridyl)sulfonyl]-6-[2-[2-(2-ethoxyethoxy)ethoxy]-6-methyl-4-pyridyl]-2-[(4S)-2,2,4-trimethylpyrrolidin-1-yl]pyridine-3-carboxamide], the EC30 entry is “++ (“++” means between 3 uM and 10 uM)”.

On to `CCOCCOc1cc(C)cc(-c2ccc(C(=O)NS(=O)(=O)c3cccc(N)n3)c(N3C[C@@H](C)CC3(C)C)n2)n1` [Compound 1700, N-[(6-amino-2-pyridyl)sulfonyl]-6-[6-(2-ethoxyethoxy)-4-methyl-2-pyridyl]-2-[(4S)-2,2,4-trimethylpyrrolidin-1-yl]pyridine-3-carboxamide], for which the EC30 entry is “+++ (“+++” means <3 uM)”.

On to `C[C@@H]1CN(c2nc(C3CCC(C(F)(F)F)CC3)ccc2C(=O)NS(=O)(=O)c2cccc(N)n2)C(C)(C)C1` (stereo partly drawn) [Compound 1672, N-[(6-amino-2-pyridyl)sulfonyl]-6-[4-(trifluoromethyl)cyclohexyl]-2-[(4S)-2,2,4-trimethylpyrrolidin-1-yl]pyridine-3-carboxamide], for which the EC30 entry is given as “+++ (“+++” means <3 uM)”.

In the case of `CC(C)COc1cc(F)cc(-c2ccc(C(=O)NS(=O)(=O)c3cccc(N)n3)c(OCC3CC3)n2)c1` [Compound 1229, N-[(6-amino-2-pyridyl)sulfonyl]-2-(cyclopropylmethoxy)-6-(3-fluoro-5-isobutoxy-phenyl)pyridine-3-carboxamide], the EC30 result was “+++ (“+++” means <3 uM)”.

Consider `CC(C)COc1cc(F)cc(-c2ccc(C(=O)NS(=O)(=O)c3cccc(N)n3)c(N3CCCCC(C)(C)C3)n2)c1` [Compound 1901, N-[(6-amino-2-pyridyl)sulfonyl]-2-(3,3-dimethylazepan-1-yl)-6-(3-fluoro-5-isobutoxy-phenyl)pyridine-3-carboxamide], for which the EC30 result is “+++ (“+++” means <3 uM)”.

For `Cc1cc(C)c(Oc2nc(C3CC(C)(C)CCC3=O)ccc2C(=O)NS(=O)(=O)c2cccc(N)n2)c(C)c1` (stereo not drawn) [Compound 1427, N-[(6-amino-2-pyridyl)sulfonyl]-6-(5,5-dimethyl-2-oxo-cyclohexyl)-2-(2,4,6-trimethylphenoxy)pyridine-3-carboxamide], the EC30 result is listed as “+++ (“+++” means <3 uM)”.

In the case of `Cc1cc(C)c(CN2C(C(=O)NS(=O)(=O)c3cccc(N)n3)c3ccccc3C2(C)C)c(C)c1` (stereo not drawn) [Compound 1101, N-[(6-amino-2-pyridyl)sulfonyl]-3,3-dimethyl-2-[(2,4,6-trimethylphenyl)methyl]isoindoline-1-carboxamide], the EC30 result is recorded as “+++ (“+++” means <3 uM)”.

Regarding `CC(C)COc1ccc(F)c(-c2ccc(C(=O)NS(=O)(=O)c3cccc(N)n3)c(N3[C@H](C)CC[C@@H]3C)n2)c1` [Compound 807, N-[(6-amino-2-pyridyl)sulfonyl]-2-[(2S,5R)-2,5-dimethylpyrrolidin-1-yl]-6-(2-fluoro-5-isobutoxy-phenyl)pyridine-3-carboxamide], the EC30 entry is “+++ (“+++” means <3 uM)”.

As to `CC(C)COc1ccc(-c2ccc(C(=O)NS(=O)(=O)c3cccc(N)n3)c(N3CCC(C)CC3)n2)cc1` [Compound 1094, N-[(6-amino-2-pyridyl)sulfonyl]-6-(4-isobutoxyphenyl)-2-(4-methyl-1-piperidyl)pyridine-3-carboxamide], the EC30 entry was “+++ (“+++” means <3 uM)”.

Consider `CC(C)COc1cc(-c2ccc(C(=O)NS(=O)(=O)c3cccc(N)n3)c(N3CC(C)CC3(C)C)n2)ccc1Cl` (stereo not drawn) [Compound 1021, N-[(6-amino-2-pyridyl)sulfonyl]-6-(4-chloro-3-isobutoxy-phenyl)-2-(2,2,4-trimethylpyrrolidin-1-yl)pyridine-3-carboxamide], for which the EC30 entry is “+++ (“+++” means <3 uM)”.

As for `CC(C)COc1cc(F)cc(-c2ccc(C(=O)NS(=O)(=O)c3cccc(N)n3)c(N3CC(C)CC(C)C3)n2)c1` (stereo not drawn) [Compound 1013, N-[(6-amino-2-pyridyl)sulfonyl]-2-(3,5-dimethyl-1-piperidyl)-6-(3-fluoro-5-isobutoxy-phenyl)pyridine-3-carboxamide], the EC30 result is given as “+++ (“+++” means <3 uM)”.

For the compound `CC(C)Oc1ccc(-c2ccc(C(=O)NS(=O)(=O)c3cccc(N)n3)c(N3CCC4(CC3)OCc3ccccc34)n2)cn1` [Compound 818, N-[(6-amino-2-pyridyl)sulfonyl]-6-(6-isopropoxy-3-pyridyl)-2-spiro[1H-isobenzofuran-3,4′-piperidine]-1′-yl-pyridine-3-carboxamide], the EC30 result is reported as “+++ (“+++” means <3 uM)”.

These data come from patent US10758534B2 (Vertex Pharmaceuticals Incorporated, priority 2014, dated 2020).
